Patent publication US20250152580A1, “METHODS FOR TREATING IMMUNE DISEASES” (Ascentage Pharma (Suzhou) co., Ltd., priority 2022, published 2025)
Entries after “also recorded” stand apart in the source; their conditions may differ.

Experiments:
Format in all cases: in vivo
[1] = tested on: CD4+CD45RBhigh T transfer IBD model; experiment: CD4+CD45RBhigh T transfer inflammatory bowel disease (IBD) model in CB17 SCID mice
Excerpt: 1. Experimental Protocol for CD4^+CD45RB^high T Transfer Inflammatory Bowel Disease (IBD) Model in CB17 SCID Mice.
Balb/c mice and CB17 SCID were purchased from Zhejiang Vital River Laboratory Animal Technology Co., Ltd. (Zhejiang, China). Animals were housed and handled in a temperature-controlled environment with a 12-h light/12-h dark cycle. A total of 50 CB17 SCID mice were assigned to 5 groups by randomization based on body weight.
CD4^+ T cells were isolated from the spleens of Balb/c mice using negative magnetic bead separation kit (Miltenyi Biotec) according to the manufacturers' instructions. The CD4^+CD45RB^high T and CD4^+CD45RB^low T cells were selected by flow cytometry and used for model construction. The isolated CD4^+CD45RB^high T cells were intraperitoneally injected into 40 recipient CB17 SCID mice with 5×10^5 cells per animal. Ten mice in Group 1 (G1) were intraperitoneally injected with 5×10^5 CD4^+CD45RB^low T cells as negative control group.
40 recipient CB17 SCID mice injected with CD4^+CD45RB^high T cells were assigned to four groups (n=10 for each group): G2, vehicle control (po, qd, from day 0 to day 42); G3, 30 mg/kg Cpd. 4 (po, qd, from day 0 to day 42); G4, 30 mg/kg Cpd. 4 (po, qd, from day 14 to day 42); G5, 100 mg/kg Cpd. 4 (po, qd, from day 14 to day 42); G6, positive control, anti-mTNF-α 25 mg/kg (ip, Q3D, from day 14 to day 42).
Clinical signs of IBD were assessed every 3 day based on the scores of disease activity index (DAI) which was evaluated from two parameters using a scoring system from 0 to 4: stool consistency (0, normal stool; 1, soft but still formed stool; 2, soft and not formed stool; 3, very soft and wet stool; 4, watery diarrhea) and body weight loss (0, no body weight loos; 1, 1-5% body weight loss; 2, 6-10% body weight loss; 3, 11-20% body weight loss; 4, >20% body weight loss).
At the end of experiment, the animals were euthanized, dissected and the entire colon was quickly removed and gently cleared of feces.
The entire colon was weighed, and the total length was measured. […] Cpd.
The colons were Swiss-rolled and fixed with neutralized PFA followed by H&E staining. After that, the pathologists from WuXi clinical pathological analysis platform, who were blinded to animal ID, reviewed the H&E staining and scored. […]
At the end of the study (day 42), all the animals were sacrificed by CO2, and the colon tissues were collected and fixed in 10% formalin for pathological analysis (H&E and LFB staining). The histopathological score was evaluated microscopically in a blinded manner.

[2] = tested on: OXA induced atopic dermatitis model; experiment: OXA induced atopic dermatitis (AD) model in C57BL/6 mice; settings: Cpd. 4 10, 30 and 100 mg/kg po qd day 7-25; dexamethasone 25 μL of 0.09% (w/v) topical qd; compared with Vehicle
Excerpt: Atopic dermatitis (AD) is a chronic skin disease that presents with itching, erythema and squamous lesions. Haptenating agent oxazolone (OXA) sensitization and continuous challenge establish AD like skin inflammation.
Female C57BL/6 mice (6 weeks old) were obtained from Biocytogen Laboratory Animal Co. Ltd. Animals were housed and handled in a temperature-controlled environment with a 12-h light/12-h dark cycle. A total of 48 mice were assigned to 6 groups by randomization based on body weight.
To induce AD-like lesion, all right ears of mice except the G1 sham control group were applied with oxazolone (OXA). Briefly, skin inflammation was induced by topical administration with 25 μL of 0.8% OXA dissolved in acetone on day 0, and repeated 25 μl of 0.4% OXA three times a week from day 7 to 25. G1 sham control group was treated same volume of vehicles. Therapeutic groups as 10 mg/kg, 30 mg/kg and 100 mg/kg Cpd. 4 (po, qd, day 7 to day 25) or 25 μL of 0.09% (w/v) dexamethasone (topical, qd, day 7 to day 25) were applied to the mice. The protocols and procedures involving the care and use of animals were approved by the Institutional Animal Care and Use Committee (IACUC) at Biocytogen (Beijing, China).
Ear thickness of mice was measured before application of Oxa and every other day from day 7 to day 26. […]

[3] = tested on: IMQ induced psoriasis model; experiment: IMQ induced psoriasis model in Balb/c mice; settings: Cpd. 4 100 mg/kg po qd day 0-6
Excerpt: Imiquimod (IMQ) is a ligand for TLRs (Toll-like receptors) of immune cells (including macrophages, monocytes and plasmacytoid dendritic cells), and therefore contributes to strong activation of the immune system.
Female Balb/c mice (7-8 weeks old) were obtained from B&K Universal Animal Co. Ltd. Animals were housed and handled in a temperature-controlled environment with a 12-h light/12-h dark cycle. A total of 36 mice were assigned to 4 groups by randomization based on body weight (6 mice in normal control group and 10 mice in other 3 groups).
At the beginning of the study on day 0, five groups were administered a daily topical dose of 80 mg of a cream preparation containing 5% IMQ on their hair-free backs to establish a model of IMQ-induced psoriasis for seven consecutive days. The G1 normal control group received appropriate vaseline.
Mice in Group 1 and Group 2 were treated with vehicle for 7 days (po, qd, from day 0 to day 6). Mice in Group 3 were treated with 100 mg/kg Cpd. 4 for 7 days (po, qd, from day 0 to day 6). Mice in Group 4 were treated with 30 mg/kg tofacitinib for 7 days (po, bid, from day 0 to day 6). The protocols and procedures involving the care and use of animals were approved by the Institutional Animal Care and Use Committee (IACUC) at KCI (Suzhou, China).
The severity of skin inflammation was monitored and graded using a modified human scoring system Psoriasis Area Severity Index (PASI). Scaling, thickness, and erythema were scored separately on a scale from 0 to 4:0, none; 1, slight; 2, moderate; 3, marked; and 4, very marked. The total score denotes severity of inflammation. Ear thickness of mice was measured every day from day 0 to day 7.
Ear thickness of mice was measured every day from day 0 to day 7. […] Compared with G1 normal control group, after IMQ treatment, ear swelling was observed indicated by increased ear thickness in G2 group reaching the maximal ear thickness to 0.40±0.02 mm on day 7. Cpd.

O=C(NS(=O)(=O)c1ccc(NC[C@H]2COCCO2)c([N+](=O)[O-])c1)c1ccc(N2CCN(CC3=C(c4ccc(Cl)cc4)CC4(CCC4)CC3)CC2)cc1Oc1cnc2[nH]ccc2c1 [Cpd. 4, (S)-N-((4-(((1,4-dioxan-2-yl)methyl)amino)-3-nitrophenyl)sulfonyl)-2-((1H-pyrrolo[2,3-b]pyridin-5-yl)oxy)-4-(4-((6-(4-chlorophenyl)spiro[3.5]non-6-en-7-yl)methyl)piperazin-1-yl)benzamide]
disease activity index (DAI), clinical score of IBD ([1]; Cpd. 4 po qd: G3 30 mg/kg day 0-42, G4 30 mg/kg day 14-42, G5 100 mg/kg day 14-42, anti-mTNF-α 25 mg/kg ip Q3D day 14-42, compared with Vehicle): significantly reducing the clinical score; also recorded: significantly reduced
pathological score (colon, H&E) ([1]; day 42, all Cpd. 4 groups, compared with Vehicle): significantly reduced; also recorded: significantly decreased
colon weight ([1]; end of experiment, Cpd. 4 all treatment groups (G3, G4, G5), anti-mTNF-α 25 mg/kg ip Q3D, vehicle 439.1 mg): significantly decreased
colon length ([1]; end of experiment, Cpd. 4 in G3 (30 mg/kg day 0-42) and G5 (100 mg/kg day 14-42), anti-mTNF-α 25 mg/kg ip Q3D, vehicle 7.72 cm): significantly increased
ear thickness [2]: significantly reducing the ear thickness; also recorded: significantly reduced
ear thickness ([3]; compared with Vehicle (0.40±0.02 mm day 7) and tofacitinib 30 mg/kg po bid): significantly reducing the ear thickness; also recorded: comparable to that of tofacitinib; also recorded: significantly reduced
PASI score (Psoriasis Area Severity Index) ([3]; tofacitinib 30 mg/kg po bid, compared with Vehicle): significantly reducing the clinical PASI score; also recorded: significantly reduced
